Tests used:
[1] = system: ICR mice; assay: Test for acute toxicity; assay type: in vivo; details: 500 mg/kg orally, suspension in aqueous 5% gum arabic solution, visual inspection for one week
Description: The agent of this invention for preventing and curing arteriosclerosis was tested for acute toxicity with a view to confirming the safety. Groups each formed of three ICR mice aged 4 to 5 weeks were used for the test. The same TMG as mentioned above was suspended as the chromanol glucoside in an aqueous 5% gum arabic solution. The suspension was orally administered to the mice at a dosage of 500 mg/kg as reduced to TMG and the mice were kept under visual inspection for one week. To the control group, the aqueous 5% gum arabic solution was orally administered at a rate of 0.3 ml.

[2] = Lipoprotein analysis, cholesterol-loaded rabbit model; assay type: in vivo, New Zealand White (NZW) type rabbits; details: cholesterol-loaded NZW rabbits
Excerpt: In the test, female and male New Zealand White (NZW) type rabbits (SPF: Kitayama Labels K.K.) which were seven weeks old at the time of arrival at the laboratory were subjected to quarantine and two weeks' domestication and visually inspected as to the general condition and, after the absence of abnormality was confirmed, put to use. The body weights at the time of starting administration (at the age of nine weeks) were in the range of 1.8 - 2.2 kg in the case of male rabbits and in the range of 1.6 - 2.0 kg in the case of female rabbits. Throughout the entire duration of the test, the animals were raised as accommodated one each in hanger cages of aluminum installed on a stainless steel rack inside a clean feeding chamber set at a temperature in the range of 20 - 26°, a relative humidity in the range of 40 - 70%, a number of ventilations in the range of 10 - 20 turns/hour, and an illumination time within the range of 12 hours (7.00 - 19:00). They were fed on a commercially available radioactively sterilized solid feed (a product containing 1% of cholesterol, made by Oriental Kobo K.K. and sold under the product code of "RC4") and they were left freely drinking the tap water delivered by an automatic water supplying device.
The dosage of TMG was set at 800 mg/head/day. The TMG was solved in reagent grade ethanol. The produced solution was sprayed on the 1% cholesterol-containing feed and the wet feed was left drying in the air. A mixed feed was prepared so as to contain 800 mg of TMG per 100 g of the feed. The mixed feed was given to the rabbits every morning at a rate of 100 g/day per head for 12 weeks for the sake of attaining oral consumption of the TMG. The feed for the control group was obtained by spraying ethanol alone on a feed containing 1% cholesterol and air-drying the wet feed. It was given to the rabbits of the control group at a rate of 100 g/day per heat for 12 weeks. […]
About 10 ml of blood was taken from the heart or the auricular artery of a rabbit experiencing 12 hours' fast prior to the start of the administration and on the 6th and 12th weeks of administration. […] The blood serum was ultracentrifuged by Hatch and Lees method (Hatch, F. T., and Lees, R. S. (1968) Advan, Lipid Res. 6, 1-68) using a centrifuge (the rotor; Beckman 70.1 Ti) made by Beckman and sold under the product code of "L-70") to separate low specific gravity lipoprotein (1.006 < d < 1.063), with the cholesterol amount of the LDL fraction determined by the cholesterol oxidase DASO method and the amount of HDL-cholesterol determined by subjecting the blood serum to the phospho-tungstic acid magnesium salt precipitation method. The amount of TMG was determined by the HPLC method.

[3] = TMG 800 mg/head/day in feed, 12th week of administration, average ± SE

SMILES: Cc1c(C)c2c(c(C)c1O)CCC(C)(C[C@H]1O[C@H](CO)[C@@H](O)[C@H](O)[C@H]1O)O2 (stereo partly drawn) [TMG, 2-(α-D-glucopyranosyl)methyl-2,5,7,8-tetramethyl chroman-6-ol]
- fatality [1]: None of the mice
- LDL-TMG ([2]; amount of TMG in LDL fraction by HPLC, TMG 800 mg/head/day in feed, 12th week of administration): not detected
- activity of lowering the HDL-cholesterol ([2]; TMG 800 mg/head/day for 12 weeks): no activity
- HDL-CHO [2, 3]: 33 ± 5 mg/dL
- LDL-CHO [2, 3]: 620 ± 34 mg/dL

— patent publication EP1151753B1, “PREVENTIVE AND THERAPEUTIC AGENTS FOR ARTERIOSCLEROSIS” (CCI CORPORATION, priority 1999, dated 2000)
